Reference: patent publication US20240025862A1, “SUBSTITUTED N-PHENYLURACILS AND SALTS THEREOF, AND USE THEREOF AS HERBICIDAL ACTIVE SUBSTANCES” (Bayer Aktiengesellschaft, priority 2020, published 2024)

Columns and labels:
Assay type in all cases: in vivo
[1] = test system: Abutilon theophrasti (ABUTH); assay: Post-emergence herbicidal action, greenhouse pot test; conditions: rated visually after about 3 weeks vs untreated controls, 100% = plants have died
In short: (§1)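 Greenhouse-grown weeds in sandy loam were sprayed post-emergence at the one-leaf stage, 2–3 weeks after sowing. Compounds were formulated as WP or EC in water with 0.5% additive at 600 l/ha, at rates of 20 g/ha or less. Visual rating after about 3 weeks used a scale from 0% (like untreated control) to 100% (plants dead).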

[2] = test system: Amaranthus retroflexus (AMARE); assay: as above; conditions: rated visually after about 3 weeks vs untreated controls, 100% = plants have died
In short: as §1

Avena fatua (AVEFA) = assay: as above; conditions: rated visually after about 3 weeks vs untreated controls, 100% = plants have died
In short: as §1

Lolium rigidum (LOLRI) = assay: as above; conditions: dosage 20 g/ha
In short: as §1

[3] = test system: Pharbitis purpurea (PHBPU); assay: as above
In short: as §1

[4] = test system: Polygonum convolvulus (POLCO); assay: as above
In short: as §1

Veronica persica (VERPE) = assay: as above
In short: as §1

Viola tricolor (VIOTR) = assay: as above
In short: as §1

[5] = test system: Alopecurus myosuroides (ALOMY); assay: Post-emergence herbicidal action, greenhouse pot test (also comparative test C); conditions: rated visually after about 3 weeks vs untreated controls, 100% = plants have died
In short: (§2)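 Greenhouse pot plants in sandy loam were sprayed post-emergence at the one-leaf stage (2–3 weeks after sowing) with WP or EC formulations plus 0.5% additive at 600 l/ha water. Activity was rated visually after about 3 weeks versus untreated controls (100% = dead, 0% = like control); rates were 20 g/ha or less, and 5 g/ha or less in the comparative test.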

[6] = test system: Echinochloa crus-galli (ECHCG); assay: as above
In short: as §2

[7] = test system: Matricaria inodora (MATIN); assay: as above
In short: as §2

Setaria viridis (SETVI) = assay: as above
In short: as §2

[8] = test system: Triticum aestivum (TRZAS); assay: Post-emergence crop plant compatibility, greenhouse pot test; conditions: vs untreated controls
In short: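 Crop plants grown in sandy loam in the greenhouse were sprayed post-emergence at the one-leaf stage, 2–3 weeks after sowing, with WP or EC formulations as aqueous suspension/emulsion plus 0.5% additive at 600 l/ha. Damage was rated visually about 3 weeks later versus untreated controls (0% = like control, 100% = plants dead).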

Oryza sativa (ORYSA) = assay: Post-emergence crop plant compatibility, greenhouse pot test (also comparative test C); conditions: vs untreated controls
In short: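 Rice and other crops sprayed post-emergence at one-leaf stage (2–3 weeks after sowing) with WP or EC formulations plus 0.5% additive at 600 l/ha water. Visual rating about 3 weeks later versus untreated controls (100% = dead, 0% = like control); suffixes a–c denote different doses.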

Post-emergence action against TRZAS (crop plant compatibility) ([8]; 1.25 g/ha): 0%
Post-emergence action against TRZAS (crop plant compatibility) ([8]; 5 g/ha): 20%
Post-emergence action against ORYSA (crop plant compatibility) (Oryza sativa (ORYSA); 1.25 g/ha): 0%
Post-emergence action against ORYSA (crop plant compatibility) (Oryza sativa (ORYSA); 5 g/ha): 20%
SMILES: Cn1c(C(F)(F)F)cc(=O)n(-c2cc(Oc3ccccc3OCC(=O)OCCOC(F)(F)F)c(Cl)cc2F)c1=O [I.7-41]
Post-emergence action at 1.25 g/ha against ABUTH in % ([1]; 1.25 g/ha): 100%
Post-emergence action at 5 g/ha against ABUTH in % ([1]; 5 g/ha): 100%
Post-emergence action at 20 g/ha against ABUTH in % ([1]; 20 g/ha): 100%
Post-emergence action at 1.25 g/ha against AMARE in % ([2]; 1.25 g/ha): 100%
Post-emergence action at 5 g/ha against AMARE in % ([2]; 5 g/ha): 100%
Post-emergence action at 20 g/ha against AMARE in % ([2]; 20 g/ha): 100%
Post-emergence action at 5 g/ha against AVEFA in % (Avena fatua (AVEFA); 5 g/ha): 80%
Post-emergence action at 20 g/ha against AVEFA in % (Avena fatua (AVEFA); 20 g/ha): 80%
Post-emergence action against LOLRI in % (Lolium rigidum (LOLRI)): 80%
Post-emergence action against PHBPU in % ([3]; dosage 1.25 g/ha): 100%
Post-emergence action against PHBPU in % ([3]; dosage 5 g/ha): 100%
Post-emergence action against PHBPU in % ([3]; dosage 20 g/ha): 100%
Post-emergence action against POLCO in % ([4]; dosage 5 g/ha): 100%
Post-emergence action against POLCO in % ([4]; dosage 20 g/ha): 100%
Post-emergence action against VERPE (Veronica persica (VERPE); 1.25 g/ha): 80%
Post-emergence action against VERPE (Veronica persica (VERPE); 5 g/ha): 100%
Post-emergence action against VERPE (Veronica persica (VERPE); 20 g/ha): 100%
Post-emergence action against VIOTR (Viola tricolor (VIOTR); 1.25 g/ha): 100%
Post-emergence action against VIOTR (Viola tricolor (VIOTR); 5 g/ha): 100%
Post-emergence action against VIOTR (Viola tricolor (VIOTR); 20 g/ha): 100%
Post-emergence action at 1.25 g/ha against ALOMY in % ([5]; 1.25 g/ha): 100%
Post-emergence action at 5 g/ha against ALOMY in % ([5]; 5 g/ha): 100%
Post-emergence action at 20 g/ha against ALOMY in % ([5]; 20 g/ha): 100%
Post-emergence action at 1.25 g/ha against ECHCG in % ([6]; 1.25 g/ha, rated visually after about 3 weeks vs untreated controls, 100% = plants have died): 90%
Post-emergence action against ECHCG in % ([6]; dosage 5 g/ha): 100%
Post-emergence action against ECHCG in % ([6]; dosage 20 g/ha): 100%
Post-emergence action against MATIN in % ([7]; dosage 1.25 g/ha): 90%
Post-emergence action against MATIN in % ([7]; dosage 5 g/ha): 90%
Post-emergence action against MATIN in % ([7]; dosage 20 g/ha): 100%
Post-emergence action against SETVI (Setaria viridis (SETVI); 20 g/ha): 100%
Post-emergence action against SETVI in % (Setaria viridis (SETVI); dosage 1.25 g/ha): 100%
Post-emergence action against SETVI in % (Setaria viridis (SETVI); dosage 5 g/ha): 100%
